Source: patent US10377753B2, “Substituted 4-azaindoles and their use as GluN2B receptor modulators” (Janssen Pharmaceutica NV, priority 2015, dated 2019)

What follows are molecules tested against cloned human NR1/NR2B ion channels (Homo sapiens (Human), UniProt Q05586+Q13224) (assay: HNR2BC: effects of test articles on cloned human NR1/NR2B ion channels expressed in mammalian cells (FLIPR calcium flux)). Settings: cloned human NR1/NR2B, Table 5.
Type: cell-based
Experimental: HNR2BC: Effects of Test Articles on Cloned Human NR1/NR2B Ion Channels Expressed in Mammalian Cells
NMDA receptors are ion channels that are highly permeable to Ca^2+ ions, rendering it possible to monitor NMDA receptor function using cell-based calcium flux assay. In this assay, co-agonists glutamate and glycine are added to cells heterologously expressing human GluN1/GluN2B NMDA receptors to initiate cellular Ca^2+ influx. The time course of the changes in intracellular calcium is measured using a fluorescent dye and a FLIPR (Fluorometric Imaging Plate Reader) device.
Twenty four hours before measurements, the expression of the NMDA receptors in the stable cell line is induced with Tet-On inducible system in the presence of a non-selective NMDA receptor blocker. On the day of the experiment, cell culture media is carefully washed and the cells are loaded with Calcium 5 Dye Kit (Molecular Devices) in dye loading buffer containing 137 mM NaCl, 4 mM KCl, 2 mM CaCl2, 0.5 mM MgCl2, 10 mM HEPES and 5 mM D-glucose; pH 7.4. After 1 h incubation at the room temperature, the dye is washed away with the assay buffer (137 mM NaCl, 4 mM KCl, 2 mM CaCl2, 0.01 mM EDTA, 10 mM HEPES and 5 mM D-glucose; pH 7.4) In the FLIPR TETRA reader, various concentrations of the test compounds are added to the cells for 5 min while fluorescence is monitored to detect potential agonist activity. Next, co-agonists, glutamate and glycine are added for another 5 minutes. The concentration of glutamate corresponding to ˜EC80 is used to maximize the assay's signal window and ability to detect NMDA receptor antagonists and negative allosteric modulators. A saturating concentration (10 μM) of glycine is also present in the assay. […] The fluorescent signal in the presence of test compounds is quantified and normalized to the signal defined by the appropriate control wells.

cloned human NR1/NR2B ion channels, sequence (Q13224 27-1484, other chains not shown): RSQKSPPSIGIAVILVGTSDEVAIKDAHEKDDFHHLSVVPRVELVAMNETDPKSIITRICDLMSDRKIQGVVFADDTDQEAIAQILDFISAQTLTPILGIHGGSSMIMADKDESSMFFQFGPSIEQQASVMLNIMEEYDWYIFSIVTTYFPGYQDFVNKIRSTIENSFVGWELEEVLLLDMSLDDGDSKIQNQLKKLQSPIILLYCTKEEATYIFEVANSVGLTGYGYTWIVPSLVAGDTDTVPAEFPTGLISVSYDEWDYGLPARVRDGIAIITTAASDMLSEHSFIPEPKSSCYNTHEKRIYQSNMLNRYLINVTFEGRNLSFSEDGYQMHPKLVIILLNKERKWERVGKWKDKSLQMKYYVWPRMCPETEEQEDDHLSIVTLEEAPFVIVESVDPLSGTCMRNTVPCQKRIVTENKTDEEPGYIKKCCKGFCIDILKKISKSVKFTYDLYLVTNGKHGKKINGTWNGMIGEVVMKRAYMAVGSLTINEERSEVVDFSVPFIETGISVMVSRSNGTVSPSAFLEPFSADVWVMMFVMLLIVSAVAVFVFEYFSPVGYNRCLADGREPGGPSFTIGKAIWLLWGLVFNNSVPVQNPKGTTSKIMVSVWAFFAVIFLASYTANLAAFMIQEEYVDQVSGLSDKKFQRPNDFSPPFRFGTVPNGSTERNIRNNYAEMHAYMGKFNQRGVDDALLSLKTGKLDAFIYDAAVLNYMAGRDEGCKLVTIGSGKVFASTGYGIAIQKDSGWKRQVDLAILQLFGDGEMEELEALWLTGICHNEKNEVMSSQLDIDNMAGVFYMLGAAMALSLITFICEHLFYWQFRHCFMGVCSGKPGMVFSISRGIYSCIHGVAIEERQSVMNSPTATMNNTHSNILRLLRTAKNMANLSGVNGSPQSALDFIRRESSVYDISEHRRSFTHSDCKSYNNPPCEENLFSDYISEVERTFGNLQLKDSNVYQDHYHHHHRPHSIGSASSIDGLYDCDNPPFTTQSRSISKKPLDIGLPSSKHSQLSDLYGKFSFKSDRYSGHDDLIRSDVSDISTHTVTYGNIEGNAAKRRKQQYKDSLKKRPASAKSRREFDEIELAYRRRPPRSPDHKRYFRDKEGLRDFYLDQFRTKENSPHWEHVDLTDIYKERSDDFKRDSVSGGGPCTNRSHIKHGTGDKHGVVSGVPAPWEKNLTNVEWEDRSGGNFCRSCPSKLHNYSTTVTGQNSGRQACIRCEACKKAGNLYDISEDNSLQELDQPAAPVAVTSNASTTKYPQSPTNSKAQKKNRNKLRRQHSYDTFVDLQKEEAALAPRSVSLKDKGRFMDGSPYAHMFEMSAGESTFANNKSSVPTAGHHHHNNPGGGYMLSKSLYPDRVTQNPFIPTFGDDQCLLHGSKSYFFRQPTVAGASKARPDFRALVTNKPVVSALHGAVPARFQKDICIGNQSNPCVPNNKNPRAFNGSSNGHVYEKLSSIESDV

Structure (SMILES)	IC50 [µM]	pIC50
O=C(Cn1cc(Br)c2ncc(-c3ccc(F)cc3)cc21)N1CCOCC1 [Example 20, 2-[3-Bromo-6-(4-fluorophenyl)pyrrolo[3,2-b]pyridin-1-yl]-1-morpholino-ethanone]	0.0501	
Cc1cccc(-c2cnc3c(Br)cn(CC(=O)NC4CC4)c3c2)c1 [Example 21, 2-[3-Bromo-6-(m-tolyl)pyrrolo[3,2-b]pyridin-1-yl]-N-cyclopropyl-acetamide]	0.0398	
Cc1cccc(-c2cnc3c(Br)cn(CC(=O)N4CCC4)c3c2)c1 [Example 22, 1-(Azetidin-1-yl)-2-[3-bromo-6-(m-tolyl)pyrrolo[3,2-b]pyridin-1-yl]ethanone]	0.0251	
Cc1cccc(-c2cnc3c(Br)cn(CC(=O)N4CCCC4)c3c2)c1 [Example 23, 2-[3-Bromo-6-(m-tolyl)pyrrolo[3,2-b]pyridin-1-yl]-1-pyrrolidin-1-yl-ethanone]	0.0501	
Cc1cccc(-c2cnc3c(Br)cn(CC(=O)N4CCOCC4)c3c2)c1 [Example 24, 2-[3-Bromo-6-(m-tolyl)pyrrolo[3,2-b]pyridin-1-yl]-1-morpholino-ethanone]	0.1	
Cc1cc(-c2cnc3c(Cl)cn(CC(=O)N4CC(F)(F)C4)c3c2)ccc1F [Example 25, 2-[3-Chloro-6-(4-fluoro-3-methyl-phenyl)pyrrolo[3,2-b]pyridin-1-yl]-1-(3,3-difluoroazetidin-1-yl)ethanone]	0.0794	
Cc1cc(-c2cnc3c(Cl)cn(CC(=O)N4CC(F)C4)c3c2)ccc1F [Example 26, 2-[3-Chloro-6-(4-fluoro-3-methyl-phenyl)pyrrolo[3,2-b]pyridin-1-yl]-1-(3-fluoroazetidin-1-yl)ethanone]	0.0398	
Cc1cn(CC(=O)N2CCCC2)c2cc(-c3ccc(F)cc3)cnc12 [Example 27, 2-[6-(4-Fluorophenyl)-3-methyl-pyrrolo[3,2-b]pyridin-1-yl]-1-pyrrolidin-1-yl-ethanone]	0.0501	
Cc1cn(CC(=O)N2CCOCC2)c2cc(-c3ccc(F)cc3)cnc12 [Example 28, 2-[6-(4-Fluorophenyl)-3-methyl-pyrrolo[3,2-b]pyridin-1-yl]-1-morpholino-ethanone]	0.2	
O=C(Cn1cc(Cl)c2ncc(-c3ccc(F)c(F)c3)cc21)N1CCC1 [Example 29, 1-(Azetidin-1-yl)-2-[3-chloro-6-(3,4-difluorophenyl)pyrrolo[3,2-b]pyridin-1-yl]ethanone]	0.02	
O=C(Cn1cc(Cl)c2ncc(-c3ccc(F)c(F)c3)cc21)N1CC(F)C1 [Example 30, 2-[3-Chloro-6-(3,4-difluorophenyl)pyrrolo[3,2-b]pyridin-1-yl]-1-(3-fluoroazetidin-1-yl)ethanone]	0.02	
Cc1cc2ncc(-c3ccc(F)cc3)cc2n1CC(=O)N1CCOCC1 [Example 31, 2-[6-(4-Fluorophenyl)-2-methyl-pyrrolo[3,2-b]pyridin-1-yl]-1-morpholino-ethanone]	3.16	
Cc1cn(CC(=O)NC2CC2)c2cc(-c3ccc(F)cc3)cnc12 [Example 32, N-Cyclopropyl-2-[6-(4-fluorophenyl)-3-methyl-pyrrolo[3,2-b]pyridin-1-yl]acetamide]	0.398	
Cc1cn(CC(=O)N2CCC2)c2cc(-c3ccc(F)cc3)cnc12 [Example 33, 1-(Azetidin-1-yl)-2-[6-(4-fluorophenyl)-3-methyl-pyrrolo[3,2-b]pyridin-1-yl]ethanone]	0.0631	
O=C(Cn1cc(Cl)c2ncc(-c3ccc(F)c(F)c3)cc21)N1CC(F)(F)C1 [Example 34, 2-[3-Chloro-6-(3,4-difluorophenyl)pyrrolo[3,2-b]pyridin-1-yl]-1-(3,3-difluoroazetidin-1-yl)ethanone]		7.8
O=C(Cn1cc(Cl)c2ncc(-c3ccc(F)c(C(F)(F)F)c3)cc21)N1CC(F)C1 [Example 35, 2-[3-Chloro-6-[4-fluoro-3-(trifluoromethyl)phenyl]pyrrolo[3,2-b]pyridin-1-yl]-1-(3-fluoroazetidin-1-yl)ethanone]	0.2	
O=C(Cn1cc(Cl)c2ncc(-c3cccc(C(F)(F)F)c3)cc21)N1CC(F)(F)C1 [Example 36, 2-[3-Chloro-6-[3-(trifluoromethyl)phenyl]pyrrolo[3,2-b]pyridin-1-yl]-1-(3,3-difluoroazetidin-1-yl)ethanone]	0.1	
Cc1cc2ncc(-c3ccc(F)cc3)cc2n1CC(=O)N1CCCC1 [Example 37, 2-[6-(4-Fluorophenyl)-2-methyl-pyrrolo[3,2-b]pyridin-1-yl]-1-pyrrolidin-1-yl-ethanone]	1	
Cc1cc2ncc(-c3ccc(F)cc3)cc2n1CC(=O)NC1CC1 [Example 38, N-Cyclopropyl-2-[6-(4-fluorophenyl)-2-methyl-pyrrolo[3,2-b]pyridin-1-yl]acetamide]	5.01	
O=C(Cn1cc(Cl)c2ncc(-c3cc(F)c(F)c(F)c3)cc21)N1CC(F)C1 [Example 39, 2-[3-Chloro-6-(3,4,5-trifluorophenyl)pyrrolo[3,2-b]pyridin-1-yl]-1-(3-fluoroazetidin-1-yl)ethanone]	0.0316	
O=C(Cn1cc(Cl)c2ncc(-c3ccc(F)c(C(F)(F)F)c3)cc21)N1CC(F)(F)C1 [Example 40, 2-[3-Chloro-6-[4-fluoro-3-(trifluoromethyl)phenyl]pyrrolo[3,2-b]pyridin-1-yl]-1-(3,3-difluoroazetidin-1-yl)ethanone]	0.501	
Cc1cccc(-c2cnc3cc(C)n(CC(=O)N4CCC4)c3c2)c1 [Example 41, 1-(Azetidin-1-yl)-2-[2-methyl-6-(m-tolyl)pyrrolo[3,2-b]pyridin-1-yl]ethanone]	0.0251	
Cc1cc2ncc(-c3ccccc3)cc2n1CC(=O)N1CCCC1 [Example 42, 2-(2-Methyl-6-phenyl-pyrrolo[3,2-b]pyridin-1-yl)-1-pyrrolidin-1-yl-ethanone]	2.51	
Cc1cccc(-c2cnc3cc(C)n(CC(=O)N4CCCC4)c3c2)c1 [Example 44, 2-[2-Methyl-6-(m-tolyl)pyrrolo[3,2-b]pyridin-1-yl]-1-pyrrolidin-1-yl-ethanone]	0.2	
Cc1cccc(-c2cnc3cc(C)n(CC(=O)N4CCOCC4)c3c2)c1 [Example 45, 2-[2-Methyl-6-(m-tolyl)pyrrolo[3,2-b]pyridin-1-yl]-1-morpholino-ethanone]	0.501	
Cc1cc2ncc(-c3ccc(F)cc3)cc2n1CC(=O)N1CCC1 [Example 46, 1-(Azetidin-1-yl)-2-[6-(4-fluorophenyl)-2-methyl-pyrrolo[3,2-b]pyridin-1-yl]ethanone]	0.501	
Cc1cc2ncc(-c3ccccc3)cc2n1CC(=O)N1CCC1 [Example 47, 1-(Azetidin-1-yl)-2-(2-methyl-6-phenyl-pyrrolo[3,2-b]pyridin-1-yl)ethanone]	0.0794	
O=C(Cn1cc(Cl)c2ncc(-c3cccc(C(F)(F)F)c3)cc21)N1CC(F)C1 [Example 48, 2-[3-Chloro-6-[3-(trifluoromethyl)phenyl]pyrrolo[3,2-b]pyridin-1-yl]-1-(3-fluoroazetidin-1-yl)ethanone]	0.631	
O=C(Cn1cc(Cl)c2ncc(-c3cc(F)c(F)c(F)c3)cc21)N1CC(F)(F)C1 [Example 49, 2-[3-Chloro-6-(3,4,5-trifluorophenyl)pyrrolo[3,2-b]pyridin-1-yl]-1-(3,3-difluoroazetidin-1-yl)ethanone]	0.2	
